Assay results: ChEMBL document CHEMBL3885881, “DrugMatrix”

Species on record: Rattus norvegicus
Test: DrugMatrix - Regimen: Daily Repeat
Assay type: toxicity, organism-based, Sprague-Dawley
Parameters: regimen Daily Repeat, gender Male, age 6-8 weeks
Conditions: in vivo, po, route oral GAVAGE, vehicle .5 % CMC; for ABSOLUTE BASOPHIL / ABSOLUTE EOSINOPHIL / ABSOLUTE LYMPHOCYTE / ABSOLUTE MONOCYTE / ABSOLUTE SEGMENTED NEUTROPHIL / BASOPHIL / EOSINOPHIL / ERYTHROCYTE COUNT / HEMATOCRIT / HEMOGLOBIN / LEUKOCYTE COUNT / LYMPHOCYTE / MEAN CORPUSCULAR HEMOGLOBIN / MEAN CORPUSCULAR HEMOGLOBIN CONCENTRATION / MEAN CORPUSCULAR VOLUME / MONOCYTE / NEUTROPHIL / NUCLEATED RED BLOOD CELLS / PLATELET COUNT: tissue Blood; for ALANINE AMINOTRANSFERASE / ALBUMIN / ALKALINE PHOSPHATASE / ASPARTATE AMINOTRANSFERASE / BLOOD UREA NITROGEN / CARBON DIOXIDE / CHLORIDE / CHOLESTEROL / CREATINE PHOSPHOKINASE / CREATININE / GLUCOSE / LACTATE DEHYDROGENASE / LIPASE / PHOSPHORUS / POTASSIUM / SODIUM / TOTAL BILIRUBIN / TOTAL PROTEIN: tissue Plasma
[1] = 0 mg/kg, 72 h, dose level Control, time 3 day
[2] = 0 mg/kg, 120 h, dose level Control, time 5 day
[3] = 25 mg/kg, 72 h, dose level Low, time 3 day

With COc1cc(/C=C/C(=O)O)ccc1O [FERULATE] the “ABSOLUTE BASOPHIL” value [1] was 0 CELLS/uL, the “ABSOLUTE EOSINOPHIL” value [1] was 284.5 CELLS/uL and the “ABSOLUTE LYMPHOCYTE” value [1] was 11670.5 CELLS/uL. The “ABSOLUTE MONOCYTE” value [1] was 420.83 CELLS/uL, the “ABSOLUTE SEGMENTED NEUTROPHIL” value [1] was 1024.17 CELLS/uL and the BASOPHIL [1] was 0%. For the same molecule, the EOSINOPHIL [1] was 1.67%, the “ERYTHROCYTE COUNT” value [1] was 5.38 x10E6/uL and the HEMATOCRIT [1] was 34.05%. For the same molecule, the HEMOGLOBIN [1] was 12.75 G/DL, the “LEUKOCYTE COUNT” value [1] was 13.4 x10E3/uL and the LYMPHOCYTE [1] was 88.33%. For the same molecule, the “MEAN CORPUSCULAR HEMOGLOBIN” value [1] was 23.73 pg, the “MEAN CORPUSCULAR HEMOGLOBIN CONCENTRATION” value [1] was 37.43 G/DL and the “MEAN CORPUSCULAR VOLUME” value [1] was 63.4 fL. For the same molecule, the MONOCYTE [1] was 2.83%, the NEUTROPHIL [1] was 7.17% and the “NUCLEATED RED BLOOD CELLS” value [1] was 0 /100WBC. The “PLATELET COUNT” value [1] was 1184.67 x10E3/uL, the “ALANINE AMINOTRANSFERASE” value [1] was 45.33 u/L and the ALBUMIN [1] was 4.3 G/DL. For the same molecule, the “ALKALINE PHOSPHATASE” value [1] was 388.83 u/L, the “ASPARTATE AMINOTRANSFERASE” value [1] was 84.83 u/L and the “BLOOD UREA NITROGEN” value [1] was 15.5 mg/dL. The “CARBON DIOXIDE” value [1] was 27 mmol/L, the CHLORIDE [1] was 101.8 MEQ/L and the CHOLESTEROL [1] was 76.67 mg/dL. The “CREATINE PHOSPHOKINASE” value [1] was 301 u/L, the CREATININE [1] was 0.21 mg/dL and the GLUCOSE [1] was 168.83 mg/dL. For the same molecule, the “LACTATE DEHYDROGENASE” value [1] was 294.83 u/L, the LIPASE [1] was 9.8 u/L and the PHOSPHORUS [1] was 13.25 mg/dL. The POTASSIUM [1] was 6.41 MEQ/L, the SODIUM [1] was 143.72 MEQ/L and the “TOTAL BILIRUBIN” value [1] was 0.22 mg/dL. The “TOTAL PROTEIN” value [1] was 5.98 G/DL, the “ABSOLUTE BASOPHIL” value [2] was 0 CELLS/uL and the “ABSOLUTE EOSINOPHIL” value [2] was 190.67 CELLS/uL. For the same molecule, the “ABSOLUTE LYMPHOCYTE” value [2] was 12549.5 CELLS/uL, the “ABSOLUTE MONOCYTE” value [2] was 276 CELLS/uL and the “ABSOLUTE SEGMENTED NEUTROPHIL” value [2] was 1067.17 CELLS/uL. For the same molecule, the BASOPHIL [2] was 0%, the EOSINOPHIL [2] was 1.33% and the “ERYTHROCYTE COUNT” value [2] was 5.66 x10E6/uL. The HEMATOCRIT [2] was 35.92%, the HEMOGLOBIN [2] was 13.65 G/DL and the “LEUKOCYTE COUNT” value [2] was 14.08 x10E3/uL. For the same molecule, the LYMPHOCYTE [2] was 89%, the “MEAN CORPUSCULAR HEMOGLOBIN” value [2] was 24.12 pg and the “MEAN CORPUSCULAR HEMOGLOBIN CONCENTRATION” value [2] was 38.03 G/DL. The “MEAN CORPUSCULAR VOLUME” value [2] was 63.47 fL, the MONOCYTE [2] was 2% and the NEUTROPHIL [2] was 7.67%. The “NUCLEATED RED BLOOD CELLS” value [2] was 0.17 /100WBC, the “PLATELET COUNT” value [2] was 1251.67 x10E3/uL and the “ALANINE AMINOTRANSFERASE” value [2] was 43.33 u/L. The ALBUMIN [2] was 4.22 G/DL, the “ALKALINE PHOSPHATASE” value [2] was 365.67 u/L and the “ASPARTATE AMINOTRANSFERASE” value [2] was 83.67 u/L. The “BLOOD UREA NITROGEN” value [2] was 18.17 mg/dL, the “CARBON DIOXIDE” value [2] was 28.67 mmol/L and the CHLORIDE [2] was 103.5 MEQ/L. The CHOLESTEROL [2] was 71.5 mg/dL, the “CREATINE PHOSPHOKINASE” value [2] was 284.5 u/L and the CREATININE [2] was 0.21 mg/dL. For the same molecule, the GLUCOSE [2] was 161.67 mg/dL, the “LACTATE DEHYDROGENASE” value [2] was 259.67 u/L and the LIPASE [2] was 9.5 u/L. It also gave a PHOSPHORUS [2] of 12.45 mg/dL, a POTASSIUM [2] of 6.49 MEQ/L and an SODIUM [2] of 144.25 MEQ/L. For the same molecule, the “TOTAL BILIRUBIN” value [2] was 0.2 mg/dL, the “TOTAL PROTEIN” value [2] was 6.1 G/DL and the “ABSOLUTE BASOPHIL” value [3] was 0 CELLS/uL. The “ABSOLUTE EOSINOPHIL” value [3] was 47 CELLS/uL, the “ABSOLUTE LYMPHOCYTE” value [3] was 6476.33 CELLS/uL and the “ABSOLUTE MONOCYTE” value [3] was 108 CELLS/uL. For the same molecule, the “ABSOLUTE SEGMENTED NEUTROPHIL” value [3] was 402 CELLS/uL, the BASOPHIL [3] was 0% and the EOSINOPHIL [3] was 1%. For the same molecule, the “ERYTHROCYTE COUNT” value [3] was 5.55 x10E6/uL, the HEMATOCRIT [3] was 35.4% and the HEMOGLOBIN [3] was 13.17 G/DL. For the same molecule, the “LEUKOCYTE COUNT” value [3] was 7.03 x10E3/uL, the LYMPHOCYTE [3] was 91.67% and the “MEAN CORPUSCULAR HEMOGLOBIN” value [3] was 23.73 pg. For the same molecule, the “MEAN CORPUSCULAR HEMOGLOBIN CONCENTRATION” value [3] was 37.2 G/DL, the “MEAN CORPUSCULAR VOLUME” value [3] was 63.8 fL and the MONOCYTE [3] was 1.67%. The NEUTROPHIL [3] was 5.67%, the “NUCLEATED RED BLOOD CELLS” value [3] was 0 /100WBC and the “PLATELET COUNT” value [3] was 1224.33 x10E3/uL. The “ALANINE AMINOTRANSFERASE” value [3] was 45.33 u/L, the ALBUMIN [3] was 4.27 G/DL and the “ALKALINE PHOSPHATASE” value [3] was 484.33 u/L. The “ASPARTATE AMINOTRANSFERASE” value [3] was 84.67 u/L, the “BLOOD UREA NITROGEN” value [3] was 13.67 mg/dL and the “CARBON DIOXIDE” value [3] was 28 mmol/L. For the same molecule, the CHLORIDE [3] was 103 MEQ/L, the CHOLESTEROL [3] was 71 mg/dL and the “CREATINE PHOSPHOKINASE” value [3] was 192.33 u/L. The CREATININE [3] was 0.18 mg/dL, the GLUCOSE [3] was 148.33 mg/dL and the “LACTATE DEHYDROGENASE” value [3] was 120.67 u/L. It also gave an LIPASE [3] of 9.33 u/L, a PHOSPHORUS [3] of 12.27 mg/dL and a POTASSIUM [3] of 6.28 MEQ/L. For the same molecule, the SODIUM [3] was 147.37 MEQ/L and the “TOTAL BILIRUBIN” value [3] was 0.2 mg/dL.
